ChEMBL document CHEMBL1201862, “PubChem BioAssay data set” (2004)
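In this assay, cells in 96-well plates receive the compound at five concentrations for 48 hours. Endpoints are linearly interpolated between the surrounding concentrations. At the GI50, growth is halved.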 Active and inactive are the calls of the source. No stated cut-off is given here; in the data, active = GI50 up to about 1.1 µM and inactive = higher.

Tests used:
Test in all cases: NCI tumour cell line growth inhibition, 48 h
[1] = tested on: DLD-1
[2] = tested on: SNB-78
[3] = tested on: DMS-273
[4] = tested on: M19-MEL
[5] = tested on: DMS-114
[6] = tested on: HOP-18
[7] = tested on: BT-549
[8] = tested on: PC-3

Measured: GI50

COc1cc([C@@H]2OCC3C(c4ccc5c(c4)OCO5)OCC32)cc(OC)c1OC (some centres undefined)
inactive: [1] > 100 µM | [2] > 100 µM | [3] 76.4 µM | [4] > 100 µM | [5] 35.5 µM

COc1ccccc1OCc1nnc(SCC(=O)O)n1-c1ccccc1
inactive: [1] > 100 µM | [2] > 100 µM | [3] > 100 µM | [5] > 100 µM

O=C(N/N=C(/CCN1CCCC1)CC(c1ccccc1)c1c(O)c2ccccc2oc1=O)c1ccncc1 (centres undefined)
inactive: [1] > 100 µM | [2] > 100 µM | [4] 95.1 µM | [6] > 100 µM

C=CCNC1=C2C[C@@H](C)C[C@@H](OC)[C@H](OC(=O)CCN)[C@H](C)/C=C(\C)[C@@H](OC(N)=O)[C@H](OC)/C=C\C=C(/C)C(=O)NC(=CC1=O)C2=O
inactive: [7] 7.45 µM

Cn1cc2ccccc2c1-c1nc(F)nc(Oc2ccc3c(c2)CC[C@@H]2C3CC[C@@]3(C)C2C[C@H](O)[C@@H]3O)n1 (some centres undefined)
inactive: [1] 10.3 µM | [2] 19.6 µM | [3] 10.3 µM | [4] 16.9 µM | [5] 12.3 µM | [6] 22.3 µM

CC(C)(C)N/C(N)=N/C#N
inactive: [7] > 100 µM | [8] > 100 µM

O=C1CCC(=O)N1CNc1ccc2c(c1)S(=O)(=O)c1ccccc1O2
inactive: [7] > 100 µM | [8] > 100 µM

C=CCCCCCCCC(O)C1C[C@H](O)C(CCCCC)O1 (some centres undefined)
inactive: [1] 17.3 µM | [2] 20 µM | [3] 18.1 µM | [4] 19.1 µM | [5] 17.3 µM | [6] 17.9 µM

O=C1C[C@H](CCC(=O)OCc2ccccc2)NC(=O)C[C@H](CCC(=O)OCc2ccccc2)NC(=O)C[C@H](CCC(=O)OCc2ccccc2)N1
inactive: [7] 24.3 µM | [8] > 100 µM

Cc1ccc(S(=O)(=O)CN2C(=O)C(c3ccccc3)(c3ccccc3)C23OC(c2ccc(Cl)cc2)=CC3=O)cc1 (centres undefined)
inactive: [7] > 10 µM | [8] 4.07 µM

O=C(Cn1c(C(=O)/C=C/c2ccc(Cl)c(Cl)c2)nc2ccccc21)c1ccccc1
inactive: [7] 32.1 µM | [8] 29.3 µM

Clc1ccc(-c2cn3c(nc4ccccc43)c(-c3ccccc3)n2)cc1
inactive: [7] 19.5 µM | [8] 18.7 µM

O=C1C(=Cc2ccccc2O)N=C(c2ccccc2)N1n1c(-c2ccccc2)nc2ccccc2c1=O
inactive: [7] 28.8 µM | [8] 34 µM

c1c[nH]c(CN2CCN(Cc3ncc[nH]3)CC2)n1
inactive: [7] > 100 µM | [8] > 100 µM

C/C(COc1ccccc1)=N\NC(N)=S
inactive: [1] > 100 µM | [2] > 100 µM | [3] > 100 µM | [4] > 100 µM | [5] 62.7 µM

CC1=C(C)C(=O)C2=C(OCCO2)C1=O
inactive: [7] 22.8 µM | [8] 18.2 µM

CC(C)(C)C1=CC(=C(c2ccc(-c3c4nc(c(-c5ccc(C(=C6C=C(C(C)(C)C)C(=O)C(C(C)(C)C)=C6)c6cc(C(C)(C)C)c(O)c(C(C)(C)C)c6)cc5)c5ccc([nH]5)c(-c5ccc(C(=C6C=C(C(C)(C)C)C(=O)C(C(C)(C)C)=C6)c6cc(C(C)(C)C)c(O)c(C(C)(C)C)c6)cc5)c5nc(c(-c6ccc(C(=C7C=C(C(C)(C)C)C(=O)C(C(C)(C)C)=C7)c7cc(C(C)(C)C)c(O)c(C(C)(C)C)c7)cc6)c6ccc3[nH]6)C=C5)C=C4)cc2)c2cc(C(C)(C)C)c(O)c(C(C)(C)C)c2)C=C(C(C)(C)C)C1=O
inactive: [7] > 100 µM | [8] > 100 µM

CN/N=C(/CC(=O)c1sc(NNC(C)=O)nc1C)C(=O)Nc1ccc(OC)cc1OC
inactive: [1] > 100 µM | [2] > 100 µM | [3] > 100 µM | [4] > 100 µM | [5] > 100 µM

CCOC(=O)CC(NCc1ccc(/N=C/c2nc3ccc(C(F)(F)F)cc3nc2-c2ccccc2)cc1)C(=O)OCC (centres undefined)
inactive: [1] > 100 µM | [2] > 72.1 µM | [3] > 64.1 µM | [4] > 100 µM | [5] > 68.5 µM | [6] 24.7 µM

CCN(CC)CCN1c2ccccc2Sc2ccc3ccccc3c21
inactive: [7] 14.9 µM | [8] 6.73 µM

CC1N=C(c2ccccc2)OC1=O (centres undefined)
inactive: [7] > 100 µM | [8] > 100 µM

CC(C)C(NCc1c2ccccc2[n+]([O-])c2ccccc12)C(=O)O (centres undefined)
inactive: [1] 36.4 µM | [2] 68.2 µM | [3] 38.9 µM | [5] 29.6 µM | [6] 14.5 µM

C[C@H]1/C(=C/C(=O)OCCN(C)C)CC[C@H]2[C@H]1C(=O)C[C@H]1C(C)(C)[C@@H](O)CC[C@]21C
inactive: [7] > 100 µM | [8] > 100 µM

CCOC(CI)O[C@@H]1C=C[C@H](OC(C)=O)C1 (some centres undefined)
inactive: [7] > 100 µM | [8] > 100 µM

COc1ccc(C(=O)c2sc(N(C)C)nc2-c2ccccc2)cc1
inactive: [7] 26.1 µM | [8] 28.9 µM

CCOC(=O)NC(Nc1ccc(F)c(F)c1)(C(=O)OCC)C(F)(F)F (centres undefined)
inactive: [7] > 100 µM | [8] > 80.5 µM
